Experimental findings from patent US12599562B2, “Nanocrystal microparticles of poorly soluble drugs and methods of production and use thereof” (The Board of Regents of the University of Oklahoma, priority 2017, dated 2026) are described below.

The nature of data set [1]: Apparent maximum solubility of SHetA2 NCs and SHetA2 NC-MPs in PBS containing 0.05% SDS. The class given is physicochemical. To be noted: aqueous with cosolvent or surfactant or cyclodextrin, thermodynamic from solid, at first 5 min, read-out: apparent maximum solubility (highest drug solubility). The procedure: SHetA2 NCs, SHetA2 MPs, and SHetA2 NC-MPs in PBS containing 0.05% SDS.
Apparent Maximum Solubility of SHetA2 NCs and SHetA2 NC-MPs
The apparent maximum solubility profiles of SHetA2 NCs, SHetA2 NC-MPs, unprocessed SHetA2 (i.e., unprocessed drug), and spray dried SHetA2 MPs (i.e., microparticulate amorphous drug) are shown in FIG. 8. […] SHetA2 NC-MPs and spray dried SHetA2 MPs followed a similar dissolution profile after 45 min. […] After 6 h, SHetA2 NCs followed a similar dissolution profile with the other two formulations.

The nature of data set [2]: Dissolution profile (cumulative percentage of SHetA2 dissolved). The class given is physicochemical. The settings on record: size range 2.82-4.46 μm; level reached (NCs and NC-MPs rising until 5 h). The source says:
Cumulative percentage dissolved SHetA2 from unprocessed SHetA2, SHetA2 NCs, SHetA2 MPs, and SHetA2 NC-MPs.
Dissolution Profile of SHetA2 NC-MPs, Unprocessed SHetA2, and Spray Dried SHetA2 MPs of Size Range 2.82-4.46 μm
The mean cumulative percentage of SHetA2 dissolved versus time data for SHetA2 NCs, SHetA2 NC-MPs, spray dried SHetA2 MPs, and unprocessed SHetA2 is shown in FIG. 9. MPs in sizes 2.82-4.46 μm were studied, because the particles in this size range are deposited in the alveolar region of the lungs. […] The concentration of SHetA2 increased at a constant rate for SHetA2 NCs and SHetA2 NC-MPs until 5 h. […] In the case of spray dried SHetA2 MPs, there was a prompt release within the first 15 min, then SHetA2 concentration increased slowly until leveling at a cumulative percentage of 21.19±4.40%. In contrast, the unprocessed SHetA2 dissolved only 3.51±0.9%.

In brackets after ≈: the same amount, converted by molar mass.

What is called solubility is the concentration that dissolves in the medium under given conditions. As for `CC1(C)CC(C)(C)c2cc(NC(=S)Nc3ccc([N+](=O)[O-])cc3)ccc2S1` [unprocessed SHetA2], in data set [1], the solubility at 5 min was 0.48 ± 0.11 µg/mL (≈ 1.2 µM). Moreover, the “cumulative percentage of SHetA2 dissolved” value in data set [2] was determined as 3.51±0.9%.
